Assay results as given in publication PMC10321576, “Cyclic peptides target the aromatic cage of a PHD-finger reader domain to modulate epigenetic protein function” (Chemical Science, 2023).
Peptide text beside a SMILES is read from it.

Key:
DIDO PHD = molecular target: T1, DIDO PHD (Homo sapiens, UniProt Q9BTC0); assay: BLI binding; settings: 1:1 binding model
T1 construct: DIDO PHD
T1 sequence (Q9BTC0 268-322 limits assumed): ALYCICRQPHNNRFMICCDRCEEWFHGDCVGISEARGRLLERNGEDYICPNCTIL
Description: (§1) against KDM7 and other protein domains. t1/2 = half life (0.693 / Koff)
(§2) (1 picture or pasted object on this page, not shown here)

ING2 PHD = molecular target: T2, ING2 PHD (Homo sapiens, UniProt Q9H160); assay: BLI binding; settings: 1:1 binding model
T2 construct: ING2 PHD
T2 sequence (Q9H160 212-261 limits assumed): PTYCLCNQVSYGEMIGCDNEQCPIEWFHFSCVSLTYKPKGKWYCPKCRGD
Description: as §1, §2

SPIN1 TTD = SPIN1 TTD (Homo sapiens, UniProt Q9Y657); assay: BLI binding; settings: 1:1 binding model
SPIN1 TTD, sequence (Q9Y657 53-262 limits assumed): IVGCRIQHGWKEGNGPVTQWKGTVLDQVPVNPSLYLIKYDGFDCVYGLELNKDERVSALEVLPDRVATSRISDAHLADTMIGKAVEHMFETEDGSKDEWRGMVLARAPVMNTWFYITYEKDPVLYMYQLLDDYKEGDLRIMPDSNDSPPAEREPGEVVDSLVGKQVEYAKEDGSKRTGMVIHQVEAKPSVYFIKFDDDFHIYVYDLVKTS
Description: as §1, §2

TAF3 PHD = molecular target: T3, TAF3 PHD (Homo sapiens, UniProt Q5VWG9); assay: BLI binding; settings: 1:1 binding model
T3 construct: TAF3 PHD
T3 sequence (Q5VWG9 865-915 limits assumed): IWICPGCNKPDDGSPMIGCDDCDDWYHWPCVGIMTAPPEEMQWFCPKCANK
Description: as §1, §2

HisTrx-DIDO PHD = molecular target: T4, HisTrx-DIDO PHD (Homo sapiens, UniProt Q9BTC0); assay: ITC binding; settings: 50 mM HEPES, 100 mM NaCl, pH 7.4, 25 °C; 1:1 binding model
T4 construct: HisTrx-DIDO PHD
Method: (§3) Figure S10. ITC results: Tabulated values from 1:1 binding model and conditions
(§4) ITC buffer = 50 mM HEPES, 100 mM NaCl, pH 7.4, 0.2 µm filtered), at 25 °C. Dual = PHD+JmjC. HisTrx
(§5) = His 6+thioredoxin tag, GST = glutathione S -transferase tag, ZB = Z -basic tag. Syringe contained
(§6) peptide solution in buffer. Cell contained protein solution in buffer.
as §2

KDM7A Dual = KDM7A Dual (Homo sapiens, UniProt Q6ZMT4); assay: ITC binding
KDM7A Dual, sequence (Q6ZMT4 38-386 limits assumed): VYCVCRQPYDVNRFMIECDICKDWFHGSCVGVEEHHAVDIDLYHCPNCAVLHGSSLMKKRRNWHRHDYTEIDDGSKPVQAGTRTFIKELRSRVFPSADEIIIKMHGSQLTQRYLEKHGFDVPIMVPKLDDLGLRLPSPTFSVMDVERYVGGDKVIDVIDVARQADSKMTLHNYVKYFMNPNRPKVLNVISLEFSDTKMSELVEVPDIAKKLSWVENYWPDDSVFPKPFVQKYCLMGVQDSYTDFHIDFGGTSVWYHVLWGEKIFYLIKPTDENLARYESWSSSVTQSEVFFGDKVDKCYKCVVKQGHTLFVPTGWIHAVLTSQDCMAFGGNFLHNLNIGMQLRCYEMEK
Method: as §3, §4, §5, §6, §2

KDM7C Dual - ZB = KDM7C Dual - ZB (Homo sapiens, UniProt O75151); assay: ITC binding
KDM7C Dual - ZB, sequence (O75151 1-353 limits assumed): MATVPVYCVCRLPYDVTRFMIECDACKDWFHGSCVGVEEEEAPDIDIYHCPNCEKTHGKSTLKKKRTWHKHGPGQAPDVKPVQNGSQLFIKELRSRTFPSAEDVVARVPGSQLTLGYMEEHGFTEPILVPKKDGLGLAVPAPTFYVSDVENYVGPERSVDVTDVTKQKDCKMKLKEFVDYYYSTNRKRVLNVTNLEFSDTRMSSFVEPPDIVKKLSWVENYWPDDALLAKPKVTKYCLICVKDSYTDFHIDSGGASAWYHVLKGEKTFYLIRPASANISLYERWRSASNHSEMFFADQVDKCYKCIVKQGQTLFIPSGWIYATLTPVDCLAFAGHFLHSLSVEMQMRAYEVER
Method: as §3, §4, §5, §6, §2

KDM7C PHD = molecular target: T5, KDM7C PHD (Homo sapiens, UniProt O75151); assay: ITC binding; settings: for Kd: 1:1 binding model
T5 construct: KDM7C 1-67; made in house
T5 sequence (O75151 1-67): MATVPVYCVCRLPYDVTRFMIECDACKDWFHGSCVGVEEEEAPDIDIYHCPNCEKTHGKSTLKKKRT
Method: as §3, §4, §5, §6, §2

KDM7A dual domain = KDM7A dual domain (Homo sapiens, UniProt Q6ZMT4); assay: MALDI-TOF-MS KDM7 activity assay (H3 peptide demethylation); format: biochemical; settings: from <5% without OC9
KDM7A dual domain, sequence (Q6ZMT4 38-480 limits assumed): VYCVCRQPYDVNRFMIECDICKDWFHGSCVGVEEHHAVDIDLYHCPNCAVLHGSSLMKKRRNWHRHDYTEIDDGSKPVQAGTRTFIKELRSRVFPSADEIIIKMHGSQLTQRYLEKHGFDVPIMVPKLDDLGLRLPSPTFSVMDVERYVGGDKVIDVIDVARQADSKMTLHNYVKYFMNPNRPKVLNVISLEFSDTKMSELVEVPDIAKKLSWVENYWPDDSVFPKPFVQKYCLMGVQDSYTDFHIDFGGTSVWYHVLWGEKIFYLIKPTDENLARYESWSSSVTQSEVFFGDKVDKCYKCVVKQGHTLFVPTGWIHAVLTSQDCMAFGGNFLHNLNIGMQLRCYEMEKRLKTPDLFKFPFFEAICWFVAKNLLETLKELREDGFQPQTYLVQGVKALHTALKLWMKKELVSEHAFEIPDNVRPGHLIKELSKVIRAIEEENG
Method: Fig. 5 KDM7 PHD-finger inhibition by OC9 modulates dual domain JmjC activity. (a) (i–iii) OC9 inhibits demethylation of H3K9me2, with or without K4me3, by KDM7B (0.4 μM) on H3 peptide (2.5 μM). […] (b) (i–iii) OC9 enhances demethylation of H3K4me3K9me2 by KDM7A (0.55 μM) on H3 peptide (2.5 μM), and (iv) enhances KDM7A (0.5 μM) demethylation of calf histone extracts (50 μg). […] Inset MALDI-TOF-MS overlays are from respective highest OC9 concentration points compared to DMSO alone. KDM7 PHD-finger only proteins had no demethylase activity (Fig. S40 ^†). Calf histone H3K9me2 was quantitated relative to H4 band intensities at each time point, normalised to DMSO at t = 0. Full Western blots available in Fig. S42. ^† Relative rates (Krel min^−1) from a one-phase decay model, average from N = 3 independent experiments. […] The enzyme heading of the panel (KDM7B / KDM7A) was put in front of them. / DMSO is the vehicle control. Its printed rates (0.30 min^-1 in a, 0.04 min^-1 in b) are included because they are printed with its name.
In contrast to KDM7B, KDM7A lacks activity against H3K4me3K9me2, but demethylates H3_1–21K9me2.[57] OC9, however, restored the activity of KDM7A against H3_1–21K4me3K9me2 from <5% to a level (∼30%) that approached demethylation on H3_1–21K9me2 with DMSO alone (∼40%) (Fig. 5b and S39 ^†). […]

KDM7B dual domain = molecular target: T6, KDM7B dual domain (Homo sapiens, UniProt Q9UPP1); assay: AlphaScreen demethylation assay; format: biochemical
T6 construct: dual domain (PHD-JmjC) of KDM7B; His-tag (C); made in house
T6 sequence (Q9UPP1 37-483 limits assumed): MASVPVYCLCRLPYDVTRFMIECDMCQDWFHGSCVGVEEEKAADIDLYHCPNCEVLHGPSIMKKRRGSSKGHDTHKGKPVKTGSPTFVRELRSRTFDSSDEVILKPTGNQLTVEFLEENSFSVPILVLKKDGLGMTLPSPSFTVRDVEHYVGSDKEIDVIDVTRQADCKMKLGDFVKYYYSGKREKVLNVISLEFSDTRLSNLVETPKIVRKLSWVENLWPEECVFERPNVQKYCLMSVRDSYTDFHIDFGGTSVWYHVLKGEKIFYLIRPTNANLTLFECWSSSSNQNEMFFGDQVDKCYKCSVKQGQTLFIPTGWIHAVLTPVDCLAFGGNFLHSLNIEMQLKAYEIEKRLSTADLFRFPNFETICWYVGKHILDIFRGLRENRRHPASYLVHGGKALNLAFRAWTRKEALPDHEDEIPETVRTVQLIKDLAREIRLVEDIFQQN
Description: We tested the effect of OC9 on KDM7B demethylation of H3_1–21K4me3K9me2 and the less-efficient H3_1–21K9me2 substrate by MALDI-TOF MS based assay.[14,19] […] Inhibition by OC9 was further confirmed by an orthogonal AS activity assay[58] (Fig. S41 ^†). […] As KDM7B aromatic cage mutation results in the same phenotypic outcome as JmjC catalytic site inactivation (e.g. KDM7B demethylase-dependent melanoma metastasis[20]), our results emphasise the crucial role of PHD-fingers in regulating KDM7 demethylase activity and the need to explore PHD-finger viability as therapeutic targets.

Caco-2 cell = assay: Cell permeability measurement (Caco-2); format: in vitro ADME
[1] = test system: SUP-T1 nuclear lysate proteins; assay: Pull-down and proteomics from SUP-T1 nuclear lysate; format: binding; settings: 1 μM OC9-Bt, 454 proteins identified
Method: Fig. 6 Selective capture of full-length KDM7 with OC9-Bt in nuclear lysates. (a) OC9-Bt, H3K4me3-Bt and Bt were used as affinity probes in HEK293T nuclear lysates, transiently transfected with wild type KDM7B, or PHD-finger mutant (Y14A, W29A). Capture was performed with 1 μM probe incubated in pre-cleared lysate, recovered with streptavidin-conjugated magnetic beads, then washed and eluted by heating in denaturing solution. 100-fold excess OC9 or OC9 V10A were used as competitors. […] (Left) Change in all protein (454) recoveries with competition by titration of unlabelled OC9. (Right) Volcano plot comparing relative abundance of pull-down content at 0 and 20 μM competition. The upper left quadrant indicates >5-fold difference in recovered protein (based on T-test difference of mean log 2 (LFQ) values) and p-value threshold <0.05.
A further chemoproteomic profiling analysis of endogenous protein capture by OC9-Bt from KDM7B-expressing T-cell lymphoblastic lymphoma SUP-T1 nuclear lysates[67] identified 454 proteins.

- BLI KD, DIDO PHD (DIDO PHD): no measurable affinity
- Kd (DIDO PHD): > 1000 nM
- Kd (ING2 PHD): > 1000 nM
- Kd (SPIN1 TTD): > 1000 nM
- Kd (TAF3 PHD): > 1000 nM
- ITC KD, HisTrx-DIDO PHD (HisTrx-DIDO PHD): no measurable affinity
- Kd (KDM7A Dual; 50 mM HEPES, 100 mM NaCl, pH 7.4, 25 °C, 1:1 binding model): 34.3 nM
- ITC ΔH, KDM7A Dual (KDM7A Dual; 25 °C): -56.9 ± 4.3 kJ mol -1
- ITC N, KDM7A Dual (KDM7A Dual; stoichiometry): 0.92 ± 0.03
- ITC ΔH, KDM7C Dual - ZB (KDM7C Dual - ZB; 25 °C): -65.7 ± 3.1 kJ mol -1
- Kd (KDM7C Dual - ZB; read-out: ITC pKD, KDM7C Dual - ZB (converted)): 10 nM
- ITC N, KDM7C Dual - ZB (KDM7C Dual - ZB; stoichiometry): 1.19 ± 0.01
- Kd (KDM7C PHD; 50 mM HEPES, 100 mM NaCl, pH 7.4, 25 °C): 9.56 nM
- Kd (KDM7C PHD): 10 ± 4 nM
- ITC ΔH, KDM7C PHD (KDM7C PHD; 25 °C): -62.0 ± 1.0 kJ mol -1
- ITC N, KDM7C PHD (KDM7C PHD; stoichiometry): 1.09 ± 0.01
- activity of KDM7A against H3_1–21K4me3K9me2 restored by OC9 (demethylation level) (KDM7A dual domain): ~30%
- inhibition of KDM7B demethylase in orthogonal AS activity assay (KDM7B dual domain): Inhibition
- permeability in Caco-2 cell assay (Caco-2 cell): negligible permeability
SMILES: CC(C)C[C@@H]1NC(=O)[C@H](Cc2ccc(O)cc2)NC(=O)[C@H](Cc2ccc(O)cc2)NC(=O)CSC[C@@H](C(N)=O)NC(=O)[C@H]([C@@H](C)O)NC(=O)[C@H](CCCNC(=N)N)NC(=O)[C@H](Cc2ccccc2)NC(=O)[C@H](C(C)C)NC(=O)[C@H](CO)NC(=O)[C@@H]2CCCN2C(=O)[C@H](Cc2ccc(O)cc2)NC(=O)[C@@H]2CCCN2C(=O)[C@H](Cc2c[nH]cn2)NC(=O)[C@H]([C@@H](C)O)NC1=O [OC9] (HELM PEPTIDE1{[O=C(C[*:3])[*:2]].Y.Y.L.T.H.P.Y.P.S.V.F.R.T.C.[am]}$PEPTIDE1,PEPTIDE1,1:R3-15:R3$$$V2.0)
- proteins competed from OC9-Bt pull-down by titration of unlabelled OC9 [1]: Only the relative abundance of KDM7B and KDM7C were significantly affected
